Measured values from patent US20060217370A1, “Compounds useful for the treatment and prevention of pain and screening methods therefor” (priority 2005, published 2006).

Tests used:
Experiment in all cases: Receptor Selection and Amplification Technology (R-SAT) functional receptor assay
[1] = target: T1, human MrgX1 (Homo sapiens, UniProt Q96LB2); type: cell-based; conditions: for Human-X1 Eff(%): efficacy relative to Bam22, nr = no response up to 10 micromolar
T1 construct: expressed in transfected cells; host or cells: NIH3T3
T1 sequence (Q96LB2 whole entry): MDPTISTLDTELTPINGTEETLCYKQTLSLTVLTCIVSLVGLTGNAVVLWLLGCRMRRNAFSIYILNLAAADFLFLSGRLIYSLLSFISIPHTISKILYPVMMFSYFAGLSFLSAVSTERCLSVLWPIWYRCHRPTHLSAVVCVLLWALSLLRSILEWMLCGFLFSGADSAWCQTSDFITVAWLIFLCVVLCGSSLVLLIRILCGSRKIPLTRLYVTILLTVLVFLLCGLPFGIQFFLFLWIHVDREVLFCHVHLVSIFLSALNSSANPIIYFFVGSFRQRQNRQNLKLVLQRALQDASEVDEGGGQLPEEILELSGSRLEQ
Protocol: (§1) The functional receptor assay, Receptor Selection and Amplification Technology (R-SAT), was used to investigate the pharmacological properties of test compounds on MRGX1 or MRGX2 receptors. R-SAT is disclosed in U.S. Pat. Nos. 5,707,798, 5,912,132, and 5,955,281, each of which is incorporated by reference herein in its entirety, including any drawings.
(§2) Briefly, NIH3T3 cells were grown in 96-well tissue culture plates to 70-80% confluence. Cells were transfected for 16-20 h with plasmid DNAs using Polyfect (Qiagen Inc.) and the manufacturer's protocols. R-SATs were generally performed with 4 ng/well of receptor and 20 ng/well of β-galactosidase plasmid DNA. The human MrgX1, simian MrgX1, human MrgX2 and simian MrgX2 receptor genes were amplified by PCR from genomic DNA using oligodeoxynucleotide primers based on SEQ ID NO:1, SEQ ID NO:3, SEQ ID NO:5, SEQ ID NO:7, or SEQ ID NO:9. For large-scale transfections, cells were transfected for 16-20 h, then trypsinized and frozen in DMSO. Frozen cells were later thawed, plated at ˜10,000 cells per well of a 96 half-area well plate that contained test compound. With both methods, cells were then grown in a humidified atmosphere with 5% ambient CO2 for five days. The medium was then removed from the plates and marker gene activity was measured by the addition of the β-galactosidase substrate o-nitrophenyl β-galactopyranoside (ONPG, in PBS with 0.5% NP-40). The resulting colorimetric reaction was measured in a spectrophotometric plate reader (Titertek Inc.) at 420 nm. All data were analyzed using the computer program XLFit (IDBSm). Efficacy is defined as the percent maximal activation compared to activation by a control compound (BAM22 in the case of human or simian MRGX1, STIA or Cortistatin-14 in the case of human or simian MRGX2). pEC50 is the negative of log(EC50), where EC50 is the calculated molar concentration of test compound that produces 50% of maximum activation.
(§3) Efficacy is reported relative to the ligands Bam22 for MrgX1 and STIA for MrgX2.

[2] = target: T2, human MrgX2 (Homo sapiens, UniProt Q96LB1); type: cell-based; conditions: for Human-X2 Eff(%): efficacy relative to STIA, nr = no response up to 10 micromolar; for EC50: transfected NIH3T3 cells, read-out: Human-X2 pEC50 (converted)
T2 construct: expressed in transfected cells; host or cells: NIH3T3
T2 sequence (Q96LB1 1-330): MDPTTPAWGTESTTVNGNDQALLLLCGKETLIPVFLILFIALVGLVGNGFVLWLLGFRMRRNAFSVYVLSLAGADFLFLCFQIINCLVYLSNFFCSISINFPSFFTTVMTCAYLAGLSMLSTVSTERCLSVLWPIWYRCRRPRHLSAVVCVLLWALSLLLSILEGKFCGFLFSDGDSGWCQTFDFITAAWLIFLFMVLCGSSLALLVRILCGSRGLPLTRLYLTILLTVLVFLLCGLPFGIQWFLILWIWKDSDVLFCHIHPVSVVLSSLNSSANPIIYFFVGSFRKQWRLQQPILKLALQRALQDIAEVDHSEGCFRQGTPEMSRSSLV
Protocol: as §1, §2, §3

[3] = target: simian MrgX1 (Macaca mulatta, UniProt Q1L4E8, cells depend on it, form not given, species not given); type: cell-based, monkey; conditions: efficacy relative to Bam22, nr = no response up to 10 micromolar
Chain of simian MrgX1 (Q1L4E8 1-322, change not shown): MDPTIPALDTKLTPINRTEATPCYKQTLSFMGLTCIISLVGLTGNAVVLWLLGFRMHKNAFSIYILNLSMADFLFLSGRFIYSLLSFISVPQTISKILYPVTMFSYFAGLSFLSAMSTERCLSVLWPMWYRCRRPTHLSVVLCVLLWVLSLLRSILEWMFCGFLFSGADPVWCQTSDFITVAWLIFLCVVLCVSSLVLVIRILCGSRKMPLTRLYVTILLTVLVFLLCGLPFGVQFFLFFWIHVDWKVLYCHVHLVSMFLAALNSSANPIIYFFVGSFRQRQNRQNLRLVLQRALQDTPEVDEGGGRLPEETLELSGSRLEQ
Protocol: as §1
Briefly, NIH3T3 cells were grown in 96-well tissue culture plates to 70-80% confluence. Cells were transfected for 16-20 h with plasmid DNAs using Polyfect (Qiagen Inc.) and the manufacturer's protocols. R-SATs were generally performed with 4 ng/well of receptor and 20 ng/well of β-galactosidase plasmid DNA. The human MrgX1, simian MrgX1, human MrgX2 and simian MrgX2 receptor genes were amplified by PCR from genomic DNA using oligodeoxynucleotide primers based on SEQ ID NO:1, SEQ ID NO:3, SEQ ID NO:5, SEQ ID NO:7, or SEQ ID NO:9. For large-scale transfections, cells were transfected for 16-20 h, then trypsinized and frozen in DMSO. […] The medium was then removed from the plates and marker gene activity was measured by the addition of the β-galactosidase substrate o-nitrophenyl β-galactopyranoside (ONPG, in PBS with 0.5% NP-40). The resulting colorimetric reaction was measured in a spectrophotometric plate reader (Titertek Inc.) at 420 nm. All data were analyzed using the computer program XLFit (IDBSm). […]

Compound | Human-X1 Eff(%) [1] | EC50 ([1]; transfected NIH3T3 cells, read-out: Human-X1 pEC50 (converted)) | Human-X2 Eff(%) [2] | EC50 [2] | Monkey-X1 Eff(%) [3]
CC[C@H](C)C1C(=O)Nc2ccc(NCCCN(C)C)cc2-c2nc3cc(C(=O)NCc4cccc(C(F)(F)F)c4)ccc3n21 (some centres unmarked) [Mrg-173] | 124% | 39.8 nM | 98% | 316 nM | 
CC(C)C1C(=O)Nc2ccc(N3CCN(Cc4ccccc4)CC3)cc2-c2nc3cc(C(=O)N(C)C4CCN(C)CC4)ccc3n21 (centres unmarked) [Mrg-606] | nr |  | 174% | 100 nM | nr
